Experimental data from article PMC7699847, “Acylated Aminooligosaccharides from the Yellow Sea Streptomyces sp. HO1518 as Both α-Glucosidase and Lipase Inhibitors” (Marine Drugs, 2020).
Where “and” joins values, the source holds several entries; their conditions need not be identical. Equal entries are not always repeated. Where two headings read alike, the source gives them in different places.

Legend:
[1] = target: sucrase; experiment: Sucrase inhibition assay; type: biochemical; settings: mean ± SD; triplicate; sucrose substrate, 37 °C; read-out: IC50 Values (μM) Against Sucrase
Method: 3.5.2. Sucrase Inhibition Assay
The sucrase inhibition assay was performed according to the method outlined by Honda et al. with some modifications. In brief, 10 µL of enzyme solution (100 U/mL) and 30 µL of test sample solution with appropriate concentration (dissolved in distilled water) were added into the 96-well plates, and were incubated for 10 min at 37 °C. The reaction was conducted by addition of 100 µL of sucrose solution (60 mM, dissolved in 0.1 M phosphate buffer solution). Then, the mixture was added to 200 µL of 3,5-dinitrosalysilic acid, which was heated in boiling water for 5 min to stop the reaction. The absorbance of each tested compound was measured at 540 nm. The inhibition rates were calculated using the following equation. All experiments were measured in triplicate, and a logarithmic regression curve was established to calculate IC50 values. (1) Inhibition % = Acontrol - Asample/Acontrol × 100 where Acontrol represents the absorbance of the mixture of […], sucrose solution 3,5-dinitrosalysilic acid and enzyme solution; while the Asample is the absorbance of the mixture of phosphate buffer, sucrose solution 3,5-dinitrosalysilic acid and enzyme solution.

[2] = target: T1, porcine pancreatic α-amylase (PPA) (Sus scrofa, UniProt P00690); experiment: Porcine pancreatic α-amylase (PPA) inhibition assay
T1 sequence (P00690 16-511): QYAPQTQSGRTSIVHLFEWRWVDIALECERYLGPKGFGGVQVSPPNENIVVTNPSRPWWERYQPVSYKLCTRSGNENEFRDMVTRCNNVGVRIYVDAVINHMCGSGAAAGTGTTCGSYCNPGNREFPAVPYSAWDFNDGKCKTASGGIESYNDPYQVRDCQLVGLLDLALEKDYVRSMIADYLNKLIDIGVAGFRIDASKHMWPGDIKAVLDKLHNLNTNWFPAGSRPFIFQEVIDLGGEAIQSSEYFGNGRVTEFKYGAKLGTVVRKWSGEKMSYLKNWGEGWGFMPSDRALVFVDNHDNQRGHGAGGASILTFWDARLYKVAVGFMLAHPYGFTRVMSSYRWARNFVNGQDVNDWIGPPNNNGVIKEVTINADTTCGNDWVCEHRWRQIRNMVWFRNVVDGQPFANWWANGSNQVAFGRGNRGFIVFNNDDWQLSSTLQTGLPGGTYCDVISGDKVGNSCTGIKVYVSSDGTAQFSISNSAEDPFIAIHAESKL

[3] = target: T2, pancreatic lipase (PL) (Sus scrofa, UniProt P00591); experiment: Pancreatic lipase (PL) inhibition assay (pNP laurate method); type: biochemical; settings: mean ± SD; triplicate; pNP laurate substrate, 30 min at 37 °C, Tris buffer pH 8.2; read-out: IC50 Values (μM) Against PL
T2 construct: purchased Sigma Aldrich Co. (St Louis, MO, USA)
T2 sequence (P00591 1-450): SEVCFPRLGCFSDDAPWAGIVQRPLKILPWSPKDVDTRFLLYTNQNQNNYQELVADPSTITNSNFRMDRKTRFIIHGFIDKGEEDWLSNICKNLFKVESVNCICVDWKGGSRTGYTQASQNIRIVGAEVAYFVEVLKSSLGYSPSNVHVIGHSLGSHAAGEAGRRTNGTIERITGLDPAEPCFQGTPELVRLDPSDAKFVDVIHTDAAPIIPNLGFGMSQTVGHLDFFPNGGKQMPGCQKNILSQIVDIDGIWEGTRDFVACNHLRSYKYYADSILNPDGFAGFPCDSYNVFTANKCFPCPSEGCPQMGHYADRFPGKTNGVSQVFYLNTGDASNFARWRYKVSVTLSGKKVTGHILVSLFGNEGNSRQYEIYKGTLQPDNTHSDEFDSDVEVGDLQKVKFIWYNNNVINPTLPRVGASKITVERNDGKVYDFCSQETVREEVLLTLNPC
Method: 3.6. Pancreatic Lipase (PL) Inhibition Assay
This assay was carried out using p-nitrophenyl laurate (pNP laurate) method with slight modification. In detail, 150 µL lipase solution (10 mg/mL, dissolved in the 0.1 M Tris buffer) was mixed with 50 µL tested sample solution (inhibitors) in a 1.5 mL centrifuge tube, then 350 µL 0.1 M Tris buffer (pH = 8.2) was added and pre-incubated. After the addition of 450 µL pNP laurate (substrate), the reaction was incubated for 30 min at 37 °C. The mixtures were heated in boiling water for 5 min to terminate the reaction. After cooling to RT, the tube was centrifuged at 12,000 rpm for 3 min. A portion of 100 µL of mixture was added into a 96-well plate, which was measured at 405 nm. The percentage of inhibitory activities was calculated using the formula below. All data were performed in triplicate, and a logarithmic regression curve was established to calculate IC50 values. (2) Inhibition% = [1 - (Asample - Ablank/Atest - Acontrol)] × 100 where Asample is the absorbance of the mixture of sample solution, pNP solution and enzyme solution; Ablank is the absorbance of the mixture of sample solution and pNP solution without enzyme; Atest is the absorbance of the mixture of Tris buffer, pNP solution and enzyme solution; Acontrol is the absorbance of the mixture of Tris buffer and pNP solution without enzyme.

[4] = target: T1, porcine pancreatic α-amylase (PPA); parameters: purchased Sigma Aldrich Co. (St Louis, MO, USA); method as in PMID 30360574; settings: earlier study of the same authors; cited from earlier work

Row | SMILES | IC50 [1] | IC50 [2] | IC50 [3] | IC50 ([2]; read-out: IC50 Values (μM) Against PPA, mean ± SD, acarbose as positive control) | α-amylase IC50, fold stronger than acarbose [4]
1 | CC(C)C(=O)OCC1OC(OC2C(CO)OC(OC3C(CO)OC(OC4C(CO)OC(O)C(O)C4O)C(O)C3O)C(O)C2O)C(O)C(O)C1OC1OC(C)C(NC2C=C(CO)C(O)C(O)C2O)C(O)C1O (centres unmarked) [Compound 1] | 5.5 ± 0.09 µM | 0.22 ± 0.04 µM | 2.16 ± 0.6 µM | – | –
2 | CCC(C)C(=O)OCC1OC(OC2C(CO)OC(OC3C(CO)OC(OC4C(CO)OC(O)C(O)C4O)C(O)C3O)C(O)C2O)C(O)C(O)C1OC1OC(C)C(NC2C=C(CO)C(O)C(O)C2O)C(O)C1O (centres unmarked) [Compound 2, D6-O-2-methyl-butyryl-acarviostatin I03] | 3.12 ± 0.1 µM | 0.15 ± 0.01 µM | 4.92 ± 0.2 µM | – | –
3 | CC(C)CC(=O)OC[C@H]1O[C@H](O[C@H]2[C@H](O)[C@@H](O)[C@@H](O[C@H]3[C@H](O)[C@@H](O)[C@@H](O[C@H]4[C@H](O)[C@@H](O)C(O)O[C@@H]4CO)O[C@@H]3CO)O[C@@H]2CO)[C@H](O)[C@@H](O)[C@@H]1O[C@H]1O[C@H](C)[C@@H](N[C@H]2C=C(CO)[C@@H](O)[C@H](O)[C@H]2O)[C@H](O)[C@H]1O (some centres unmarked) [Compound 4, isovalertatin M03] | 9.34 ± 0.12 µM | 0.34 ± 0.07 µM | 3.2 ± 0.1 µM | – | –
4 | CC(O)CC(=O)OC[C@H]1O[C@H](O[C@H]2[C@H](O)[C@@H](O)[C@@H](O[C@H]3[C@H](O)[C@@H](O)[C@@H](O[C@H]4[C@H](O)[C@@H](O)C(O)O[C@@H]4CO)O[C@@H]3CO)O[C@@H]2CO)[C@H](O)[C@@H](O)[C@@H]1O[C@H]1O[C@H](C)[C@@H](N[C@H]2C=C(CO)[C@@H](O)[C@H](O)[C@H]2O)[C@H](O)[C@H]1O (stereo partly drawn) [Compound 7, D6-O-β-hydroxybutyryl-acarviostatin I03] | 3.68 ± 0.13 µM | – | 8.1 ± 0.6 µM | – | –
5 | C[C@H]1O[C@H](O[C@H]2[C@H](O)[C@@H](O)[C@@H](O[C@H]3[C@H](O)[C@@H](O)C(O)O[C@@H]3CO)O[C@@H]2CO)[C@H](O)[C@@H](O)[C@@H]1N[C@H]1C=C(CO)[C@@H](O)[C@H](O)[C@H]1O (some centres unmarked) [acarbose, reference compound] | 11.3 ± 0.2 µM | – | > 200 µM and 208 µM | – | –

Molecules with a lower IC50 [1], results first:

Row | IC50 [1] | IC50 [2] | IC50 [3] | IC50 ([2]; read-out: IC50 Values (μM) Against PPA, mean ± SD, acarbose as positive control) | SMILES | α-amylase IC50, fold stronger than acarbose [4]
6 | 1.45 ± 0.07 µM | – | 0.82 ± 0.08 µM | 0.04 ± 0.01 µM | CC(C)C(=O)OCC1OC(OC2C(CO)OC(OC3C(CO)OC(OC4C(CO)OC(O)C(O)C4O)C(O)C3O)C(O)C2O)C(O)C(O)C1OC1OC(C)C(NC2C=C(CO)C(OC3OC(CO)C(OC4OC(C)C(NC5C=C(CO)C(O)C(O)C5O)C(O)C4O)C(O)C3O)C(O)C2O)C(O)C1O (centres unmarked) [Compound 3] | –
7 | 2.98 ± 0.1 µM | – | 19.7 ± 1 µM | – | CC(=O)OC[C@H]1O[C@H](O[C@H]2[C@H](O)[C@@H](O)[C@@H](O[C@H]3[C@H](O)[C@@H](O)[C@@H](O[C@H]4[C@H](O)[C@@H](O)C(O)O[C@@H]4CO)O[C@@H]3CO)O[C@@H]2CO)[C@H](O)[C@@H](O)[C@@H]1O[C@H]1O[C@H](C)[C@@H](N[C@H]2C=C(CO)[C@@H](O)[C@H](O)[C@H]2O)[C@H](O)[C@H]1O (some centres unmarked) [Compound 5, D6-O-acetyl-acarviostatin I03] | –
8 | 2.36 ± 0.12 µM | – | 15.9 ± 0.6 µM | – | CCC(=O)OC[C@H]1O[C@H](O[C@H]2[C@H](O)[C@@H](O)[C@@H](O[C@H]3[C@H](O)[C@@H](O)[C@@H](O[C@H]4[C@H](O)[C@@H](O)C(O)O[C@@H]4CO)O[C@@H]3CO)O[C@@H]2CO)[C@H](O)[C@@H](O)[C@@H]1O[C@H]1O[C@H](C)[C@@H](N[C@H]2C=C(CO)[C@@H](O)[C@H](O)[C@H]2O)[C@H](O)[C@H]1O (some centres unmarked) [Compound 6, D6-O-propionyl-acarviostatin I03] | –
9 | 0.41 ± 0.05 µM | – | 2 ± 0.18 µM | – | CC(=O)OC[C@H]1O[C@H](O[C@H]2[C@H](O)[C@@H](O)[C@@H](O[C@H]3[C@H](O)[C@@H](O)[C@@H](O[C@H]4[C@H](O)[C@@H](O)C(O)O[C@@H]4CO)O[C@@H]3CO)O[C@@H]2CO)[C@H](O)[C@@H](O)[C@@H]1O[C@H]1O[C@H](C)[C@@H](N[C@H]2C=C(CO)[C@@H](O[C@H]3O[C@H](CO)[C@@H](O[C@H]4O[C@H](C)[C@@H](N[C@H]5C=C(CO)[C@@H](O)[C@H](O)[C@H]5O)[C@H](O)[C@H]4O)[C@H](O)[C@H]3O)[C@H](O)[C@H]2O)[C@H](O)[C@H]1O (some centres unmarked) [Compound 8, D6-O-acetyl-acarviostatin II03] | 540 fold
